# Data as given in patent US20250304609A1, “POLYMORPHIC FORM OF CHALCONE GLYCOSIDE COMPOUND, AND PREPARATION METHOD AND APPLICATION THEREOF” (ZHEJIANG YONGNING PHARMACEUTICAL CO., LTD., priority 2022, published 2025).
# Several values for one entry are separate records, joined by “and”; a condition that tells them apart may be missing. Equal values may be shown once.
# Key:
# [1] = Stability tests (accelerated and long-term) of salt and crystal forms; assay type: physicochemical; conditions: for Relevant substance, Single impurity / Relevant substance, Total impurities / Content determination: HPLC; for Content determination: content of C27H32O16; for Calcium element: ICP-MS; for pH: solution 5 mg per 1 ml in water
# Protocol: The crystal form A for the stability data in the following table is prepared by the method of Example 1. The intermediate was adopted, water was used as a system, calcium carbonate was added for reaction, the solution was filtered and then allowed to stand for crystallization, and subjected to suction filtration, and the filter cake was washed with water and dried by suction, and dried under reduced pressure at 30° C. for 4-6 hours to obtain the crystal form A.
# For stability tests and inspection methods, please see the attached stability solutions and quality standards.
# [Character] Ocular estimate method: this sample was a yellow powder.
# [Examination] PH value: this sample was taken and added with water to make a solution containing 5 mg per 1 ml. According to the pH value determination method (Chinese Pharmacopoeia 2020 Edition Fourth General Rule 0631), the pH value should be 5.0-7.0.
# Relevant substances. Determination of relevant substances was performed according to high-performance liquid chromatography (Chinese Pharmacopoeia 2020 Edition Fourth General Rule 0512).
# Test sample solution. An appropriate amount of this sample was taken, accurately weighed, dissolved by addition of a diluent, and diluted quantitatively to prepare a solution containing 1.0 mg per 1 ml. The solution was shaken well, filtered through a microporous filter membrane (0.45 μm), and the subsequent filtrate was taken.
# Chromatographic conditions. Octadecylsilane bonded silica gel was used as a filler: […] potassium dihydrogen phosphate solution (1.36 g of potassium dihydrogen phosphate was taken into a 1000 mL measuring flask, dissolved by addition of water, and diluted to the scale) was used as a mobile phase A, methanol was used as a mobile phase B, and gradient elution was performed according to the following table; the detection wavelength was 375 nm; and the injection volume was 5 μl.
# Limit If there were impurity peaks in the chromatogram of the test sample solution, the area of a single impurity peak shall not be greater than 0.005 times (0.5%) the total peak area, and the sum of the areas of each impurity peak shall not be greater than 0.015 times (1.5%) the total peak area. Chromatographic peaks less than 0.02% of the peak area of the main component can be ignored.
# Water content This sample was taken, and according to the method for water content determination (Chinese Pharmacopoeia 2020 Edition Fourth General Rule 0832 First Method), the water content shall not exceed 15.0%.
# Calcium element Determination of calcium element was performed according to inductively coupled plasma mass spectrometry (Chinese Pharmacopoeia 2020 Edition Fourth General Rule 0412).
# [Content determination] Content determination was performed according to high-performance liquid chromatography (Chinese Pharmacopoeia 2020 Edition Fourth General Rule 0512).
# Chromatographic conditions. Octadecylsilane bonded silica gel was used as a filler, methanol-acetonitrile-water-phosphoric acid (26:2:72:0.04) was used as a mobile phase, and detection wavelength was 403 nm; and the injection volume was 10 μl.
# Determination method. The test sample solution and comparative sample solution were accurately measured, and injected into the liquid chromatograph separately, and the chromatogram was recorded. The content of C27H32O16 in the test sample was calculated by the peak area according to the external standard method.
# H9c2 cardiomyocytes = test: Hoechst 33342 staining method for cell apoptosis detection (OGD/R); assay type: cell-based
# Protocol: Establishment of cellular oxygen-glucose deprivation/reperfusion (OGD/R) models. […] ischemia was simulated by incubation in a three-gas incubator (95% N2, 5% CO2) using sugar-free culture medium for 8-h culture, followed by transfer to a normal CO2 incubator for 12-h culture to simulate reperfusion.
# Hoechst 33342 staining method for cell apoptosis detection. H9c2 cardiomyocytes were inoculated into a 6-well plate at a density of 2×10^5 cells/well. When the cells were completely adhered to the wall and grew to an appropriate degree of confluence, the cells were divided into a control group, a YN17 80 μg/ml group, a model group, and an OGD/R+80 μg/ml group. In the blank group, 2 mL of a fresh culture medium was added to each well and cultured in a CO2 incubator. The same amount of sugar-free DMEM was added to each well in the model group. After culture in a three-gas incubator for 8 h, the sugar-free DMEM was replaced with a fresh culture medium and transferred to a CO2 incubator for additional 12-h culture. The administration group was pretreated with different concentrations of YN17 for 24 h before OGD/R modeling. […] After the treatment of each group, staining was performed according to the instructions of the Hoechst 33342 staining solution, and the nucleus morphology and fluorescence intensity of each group were observed under a fluorescence microscope.
# [2] = test system: cerebral ischemia-reperfusion in rats; test: Cerebral ischemia-reperfusion rat model, comparative test of calcium salt YN17 and sodium salt YN17-ST; assay type: in vivo; conditions: 10 mg/kg tail vein after 1 h ischemia; 24 h; Mean ± SEM; model 51.37 ± 2.66
# Protocol: Establishment of cerebral ischemia-reperfusion rat models. Rats were anesthetized with pentobarbital sodium (45 mg/kg), the neck skin was prepared, the surgical skin was disinfected with iodophor, the neck skin was cut in the middle, the neck muscles were separated, and the left common carotid artery (CCA) was separated until the branches of the internal carotid artery (ICA) and external carotid artery (ECA) were exposed. […]
# Determination of the extent of cerebral infarction. […] The area of each brain slice and the area of the infarcted area were measured by Image Pro software, and the percentage of the area of focuses of infarct to the total area was calculated.
# The models were established and administered according to the similar method described above (YN17 (10 mg/kg) and YN17-ST (10 mg/kg) were injected into the tail vein immediately after blood supply to the middle cerebral artery of the rats was restored, and 5% glucose was injected into the tail vein in the model group. The rats were euthanized under anesthesia 24 hours after drug administration, and the extent of cerebral infarction was measured. The results were as follows: […]
# [3] = Accelerated 6 months, 40° C. ± 2° C./75% ± 5% RH
# [4] = Long-term 6 months, 25° C. ± 2° C./60% ± 5% RH
structure (smiles),measurement,setting,value
"O=C(/C=C/c1ccc(O)cc1)C1=C(O)C([C@@H]2O[C@H](CO)[C@@H](O)[C@H](O)[C@H]2O)=C([O-])[C@@](O)([C@@H]2O[C@H](CO)[C@@H](O)[C@H](O)[C@H]2O)C1=O.[Ca+2].[OH-] [YN17, (S)-3,6-dihydroxy-4-((E)-3-(4-hydroxyphenyl)acryloyl)-5-oxo-6-((2R,3R,4S,5S,6R)-3,4,5-trihydroxy-6-(hydroxymethyl)tetrahydro-2H-pyran-2-yl)-2-((2S,3R,4R,5S,6R)-3,4,5-trihydroxy-6-(hydroxymethyl)tetrahydro-2H-pyran-2-yl)cyclohexyl-1,3-diene-1-hydroxycalcium]",Character,[1]; 0 months,Yellow
same,Water content,[1]; 0 months,9.9%
same,"Relevant substance, Single impurity",[1]; 0 months,0.25%
same,"Relevant substance, Total impurities",[1]; 0 months,0.25%
same,Content determination,[1]; 0 months,97.0%
same,Calcium element,[1]; 0 months,3.19%
same,pH,[1]; 0 months,5.9
same,Character,[1]; [3],Yellow
same,Water content,[1]; [3],10.1%
same,"Relevant substance, Single impurity",[1]; [3],0.25%
same,"Relevant substance, Total impurities",[1]; [3],0.54%
same,Content determination,[1]; [3],96.5%
same,Calcium element,[1]; [3],3.26%
same,pH,[1]; [3],5.8
same,Character,[1]; [4],Yellow
same,Water content,[1]; [4],10.7%
same,"Relevant substance, Single impurity",[1]; [4],0.25%
same,"Relevant substance, Total impurities",[1]; [4],0.32%
same,Content determination,[1]; [4],96.7%
same,Calcium element,[1]; [4],3.21%
same,pH,[1]; [4],5.9
same,"Stability (comparison of salt forms, relevant substances and contents)",[1]; summary of Table 1 and Table 2,very stable
same,apoptosis characteristics of nuclei without OGD/R,H9c2 cardiomyocytes; 80 μg/ml group without OGD/R,no obvious apoptosis characteristics
same,number of densely and heavily stained cell nuclei (apoptosis),"H9c2 cardiomyocytes; OGD/R + 80 μg/ml, 24 h pretreatment",significantly reduced
same,Percentage of hemispheric tissue infarction (%),[2],20.47% and 20.47 ± 3.56 %
